Measurements taken from patent publication US20250276995A1, “PRODUCTION METHOD FOR PEPTIDE COMPOUND” (CHUGAI SEIYAKU KABUSHIKI KAISHA, priority 2022, published 2025).

Assay: Verification of solubility of carbodiimide-derived urea in NMP and DMF
Type: physicochemical
Details: for Re-precipitation: 0.77 M, after 24 hours or more
Excerpt: The concentration of carbodiimide at the time of preactivation performed in the elongation steps of Reference Example 2-3 and Examples 2-4 and 2-5 was 0.77 mol/L. To confirm the risk of precipitation in case that all carbodiimide is converted to urea, the solubility in NMP and DMF was confirmed according to the following procedure, using the DIC-derived urea with which precipitates were confirmed in Reference Examples 2-3 and the DsBC-derived urea with which no precipitates were confirmed in Examples 2-4 and 2-5.
Into 1.5 mL vials with a screw cap, DIC urea (compound SS05) and DsBC urea (compound SS06) synthesized in Example 1-3 were weighed and placed as described in Table 11, and NMP or DMF was added to be each concentration. The mixture was stirred at room temperature for 5 minutes or more, and then allowed to stand to confirm whether the urea was dissolved or not. […]

[1] = solvent DMF, concentration 0.77 M (0.77 mol/L), room temperature
[2] = solvent NMP, concentration 0.77 M (0.77 mol/L), room temperature

Row | SMILES | Re-precipitation (DMF) | Re-precipitation (NMP) | Dissolved or not [1] | Dissolved or not (solvent DMF, concentration 0.77 M (0.77 mol/L), room temperature, listed as DsBC Urea (SS06)) | Dissolved or not [2] | Dissolved or not (solvent NMP, concentration 0.77 M (0.77 mol/L), room temperature, listed as DsBC Urea (SS06)) | Dissolved or not (in DMF at 0.17 M or more) | Dissolved or not (in NMP at a concentration of 0.34 M or more) | Dissolved or not (solvent DMF, concentration 0.17 M, room temperature) | Dissolved or not (solvent DMF, concentration 0.34 M, room temperature) | Dissolved or not (solvent DMF, concentration 0.38 M, room temperature) | Dissolved or not (solvent DMF, concentration 0.51 M, room temperature) | Dissolved or not (solvent NMP, concentration 0.17 M, room temperature, stirred 5 minutes or more then allowed to stand) | Dissolved or not (solvent NMP, concentration 0.34 M, room temperature) | Dissolved or not (solvent NMP, concentration 0.38 M, room temperature) | Dissolved or not (solvent NMP, concentration 0.51 M, room temperature)
1 | CCC(C)NC(=O)NC(C)CC (stereo not shown) [SS06, 1,3-di-sec-butylurea] | no re-precipitation was confirmed | no re-precipitation was confirmed | completely dissolved | dissolved | completely dissolved | dissolved | – | – | – | – | – | – | – | – | – | –
2 | CC(C)NC(=O)NC(C)C [SS05, 1,3-Diisopropylurea] | – | – | not fully dissolved | – | not fully dissolved | – | not fully dissolved | not fully dissolved | not fully dissolved | not fully dissolved | not fully dissolved | not fully dissolved | dissolved | not fully dissolved | not fully dissolved | not fully dissolved
3 | CCNC(=O)NC(C)(C)C [SS07, 1-(tert-butyl)-3-ethylurea] | no re-precipitation was confirmed | no re-precipitation was confirmed | completely dissolved | – | completely dissolved | – | – | – | – | – | – | – | – | – | – | –
